Assay results: US20150335579A1, “MULTILAYER TABLET CONTAINING TELMISARTAN AND HYDROCHLOROTHIAZIDE” (Sawai Pharmaceutical Co., Ltd., priority 2013, published 2015)

Assay: Moisture absorbency of telmisartan and telmisartan meglumine salt
Format: physicochemical
Text: As mentioned above, it is known that the hydrolysis of hydrochlorothiazide is promoted by temperature and humidity.

Row | moisture absorbency relative to telmisartan itself | moisture absorbency (result in words) | SMILES
1 | about 10 times | – | CCCc1nc2c(C)cc(-c3nc4ccccc4n3C)cc2n1Cc1ccc(-c2ccccc2C(=O)O)cc1.CNCC(O)C(O)C(O)C(O)CO [telmisartan meglumine salt]
2 | – | relatively low | CCCc1nc2c(C)cc(-c3nc4ccccc4n3C)cc2n1Cc1ccc(-c2ccccc2C(=O)O)cc1 [telmisartan]
